Converted amounts (≈) assume the structure as drawn.
Legend:
Test in all cases: MIC, agar dilution test/Isosensitest agar
Conditions in all cases: unit assumed
E. coli Neumann = assay type: cell-based, Escherichia coli
Excerpt: (§1) |(agar dilution test/Isosensitest agar)

Staphylococcus FK 422 = assay type: cell-based
Excerpt: as §1

Klebsiella 8085 = assay type: cell-based
Excerpt: as §1

Pseudomonas Ellsworth = assay type: cell-based
Excerpt: as §1

Proteus vulgaris 1017 = assay type: cell-based
Excerpt: as §1

Providencia 12012 = assay type: cell-based
Excerpt: as §1

Serratia 16040 = assay type: cell-based
Excerpt: as §1

Streptococcus 27101 = assay type: cell-based
Excerpt: as §1

MIC (E. coli Neumann): ≤ 0.015 µg/mL | MIC (Staphylococcus FK 422): 0.25 µg/mL (≈ 0.564 µM) | MIC (Klebsiella 8085): ≤ 0.015 µg/mL | MIC (Pseudomonas Ellsworth): 0.06 µg/mL (≈ 0.135 µM) | MIC (Proteus vulgaris 1017): ≤ 0.015 µg/mL | MIC (Providencia 12012): 0.03 µg/mL (≈ 0.0677 µM) | MIC (Serratia 16040): 8 µg/mL (≈ 18 µM) | MIC (Streptococcus 27101): 0.5 µg/mL (≈ 1.13 µM)
Structure (SMILES): Cc1oc(=O)oc1CN1CCN(c2cc3c(cc2F)c(=O)c(C(=O)O)cn3C2CC2)CC1 [Example 1, 1-Cyclopropyl-6-fluoro-1,4-dihydro-7-[4-(5-methyl-2-oxo-1,3-dioxol-4-yl-methyl)-1-piperazinyl]-4-oxo-3-quinolinecarboxylic acid]
